One experiment has as its system HCT116 cells. In words: Antiproliferative activity, Alamar Blue assay, HCT116 cells. In kind it is cell-based, human. The note with it: Homo sapiens, HCT-116, HCT116 cells; read-out: HCT116 antiproliferative activity pIC50 (converted). An outline of the steps: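 HCT116 cells seeded, adhered 24 h, then exposed to compound for 4 days; Alamar Blue (resazurin) added for 4 h at 37 °C, fluorescence read at 540/590 nm. Viability as % of untreated control, triplicate wells; IC50 by probit analysis, reported as pIC50.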

The target in a further experiment is T1, Human PARP-1 enzyme (Homo sapiens, UniProt P09874).
T1 construct: purchased Trevigen
In words: In vitro Scintillation Proximity Assay (SPA) for PARP-1 inhibitory activity. In kind it is biochemical. Particulars: read-out: in vitro SPA assay PARP-1 pIC50 (converted). An outline of the steps: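 SPA assay: nicked-DNA-activated PARP-1 (0.1–0.2 μg/ml) ADP-ribosylates biotinylated histones (2 μg/ml) using [3H]-NAD+, 20 min at RT in Tris pH 8/DTT/MgCl2, stopped with 2 mM NAD+. Blank-subtracted cpm expressed as % control; IC50 by linear interpolation, reported as pIC50 (10−5 to 3×10−9 M tested).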

The results in this text go back to US8778966B2, “Quinolinone derivatives as PARP and tank inhibitors” (Janssen Pharmaceutica, NV, priority 2007, dated 2014).

T1 sequence (P09874 whole entry): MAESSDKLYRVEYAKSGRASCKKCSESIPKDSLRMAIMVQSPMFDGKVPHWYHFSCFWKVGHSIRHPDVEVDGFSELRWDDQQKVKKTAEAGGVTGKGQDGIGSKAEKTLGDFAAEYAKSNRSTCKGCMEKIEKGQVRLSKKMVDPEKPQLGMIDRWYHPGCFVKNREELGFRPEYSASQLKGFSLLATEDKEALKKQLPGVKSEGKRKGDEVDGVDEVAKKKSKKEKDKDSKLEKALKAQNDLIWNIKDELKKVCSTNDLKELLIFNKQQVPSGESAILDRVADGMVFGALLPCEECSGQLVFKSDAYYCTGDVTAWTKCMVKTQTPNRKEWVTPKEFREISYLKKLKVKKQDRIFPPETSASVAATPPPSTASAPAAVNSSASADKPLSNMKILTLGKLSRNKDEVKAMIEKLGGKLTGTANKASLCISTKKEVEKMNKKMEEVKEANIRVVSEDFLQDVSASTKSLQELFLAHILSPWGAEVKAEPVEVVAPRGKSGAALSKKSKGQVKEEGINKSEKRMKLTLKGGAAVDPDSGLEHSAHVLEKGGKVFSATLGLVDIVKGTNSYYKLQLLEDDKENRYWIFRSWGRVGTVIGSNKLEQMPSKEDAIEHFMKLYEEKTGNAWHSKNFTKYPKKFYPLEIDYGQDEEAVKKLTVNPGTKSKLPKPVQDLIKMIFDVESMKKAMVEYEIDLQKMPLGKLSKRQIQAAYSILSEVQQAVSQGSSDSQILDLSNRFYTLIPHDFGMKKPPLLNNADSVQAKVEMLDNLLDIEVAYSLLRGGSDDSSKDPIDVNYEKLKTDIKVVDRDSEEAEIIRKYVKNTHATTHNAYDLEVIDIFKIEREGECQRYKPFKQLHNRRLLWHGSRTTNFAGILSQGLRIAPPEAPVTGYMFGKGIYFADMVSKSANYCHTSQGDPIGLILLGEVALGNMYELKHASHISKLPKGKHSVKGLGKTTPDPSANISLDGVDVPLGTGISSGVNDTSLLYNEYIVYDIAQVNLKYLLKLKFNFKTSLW

As for `CCc1cc2ccc(C(C)(C#N)Cc3c(F)cccc3F)cc2[nH]c1=O` (stereo not shown) [Compound 138], the IC50 in the experiment on HCT116 cells is 251 nM; on Human PARP-1 enzyme, 1260 nM.
Taken in the same sequence, the figures for `CCc1cc2ccc(C(C)(C#N)Cc3ccc(F)cc3Br)cc2[nH]c1=O` (stereo not shown) [Compound 139] were 126 nM and 1260 nM.
For `CCc1cc2ccc(C(C)(C#N)Cc3cccc(Cl)c3)cc2[nH]c1=O` (stereo not shown) [Compound 140] the same measures were 200 nM and 631 nM.
For `CCc1cc2ccc(C(C)(C#N)Cc3cc(Cl)cc(Cl)c3)cc2[nH]c1=O` (stereo not shown) [Compound 141] the same measures were 126 nM and 1000 nM.
`CCOc1ccccc1OCCC(C)(C#N)c1ccc2cc(CC)c(=O)[nH]c2c1` (stereo not shown) [Compound 142]: the IC50 was 316 nM with HCT116 cells and 631 nM at Human PARP-1 enzyme.
Taken in the same sequence, the figures for `CCc1cc2ccc(C(C)(C#N)CCOc3cccc(C)c3)cc2[nH]c1=O` (stereo not shown) [Compound 143] were 501 nM and 794 nM.
Taken in the same sequence, the figures for `CCc1cc2ccc(C(C)(C#N)CCOc3ccc(F)cc3)cc2[nH]c1=O` (stereo not shown) [Compound 144] were 501 nM and 251 nM.
On to `CCc1cc2ccc(C(C)(C#N)CCOc3ccccc3)cc2[nH]c1=O` (stereo not shown) [Compound 145], for which the values for the IC50 in the experiment on HCT116 cells and at Human PARP-1 enzyme were 398 nM and 200 nM, respectively.
Regarding `CCc1cc2ccc(C(C)(C#N)CCOc3ccc(Cl)cc3)cc2[nH]c1=O` (stereo not shown) [Compound 146], the IC50 in the experiment on HCT116 cells and on Human PARP-1 enzyme was 398 nM each time.
As to `CCc1cc2ccc(C(C)(C#N)CCOc3ccc(OC)cc3)cc2[nH]c1=O` (stereo not shown) [Compound 147], the IC50 is 501 nM with HCT116 cells and 158 nM on Human PARP-1 enzyme.
Take `CCc1cc2ccc(C(C)(C#N)CCOc3ccccc3C)cc2[nH]c1=O` (stereo not shown) [Compound 148]: the IC50 in the experiment on HCT116 cells and on Human PARP-1 enzyme was 316 nM throughout.
Take `CCc1cc2ccc(C(C)(C#N)CCOc3ccc(C)cc3)cc2[nH]c1=O` (stereo not shown) [Compound 149]: the IC50 with HCT116 cells is 631 nM; on Human PARP-1 enzyme, 398 nM.
For `CCc1cc2ccc(C(C)(C#N)CCOc3cccc(Cl)c3)cc2[nH]c1=O` (stereo not shown) [Compound 151] the same measures were 631 nM and 501 nM.
For `CCc1cc2ccc(C(C)(C#N)CCOc3ccccc3Cl)cc2[nH]c1=O` (stereo not shown) [Compound 152] the same measures were 631 nM and 398 nM.
Taken in the same sequence, the figures for `CCc1cc2ccc(C(C)(C#N)CCOc3ccccc3Br)cc2[nH]c1=O` (stereo not shown) [Compound 153] were 200 nM and 316 nM.
Take `CCc1cc2ccc(C(C)(C#N)CCOc3ccc(Cl)cc3Cl)cc2[nH]c1=O` (stereo not shown) [Compound 154]: the IC50 in the experiment with HCT116 cells was 398 nM; on Human PARP-1 enzyme, 1260 nM.
For `CCc1cc2ccc(C(C)(C#N)CCOc3ccc(SC)cc3)cc2[nH]c1=O` (stereo not shown) [Compound 155], the figures for the IC50 with HCT116 cells and at Human PARP-1 enzyme were 6310 nM and 501 nM, respectively.
As to `CCc1cc2ccc(C(C)(C#N)CC3CN(C)c4ccccc4O3)cc2[nH]c1=O` (stereo not shown) [Compound 156], the IC50 is 2000 nM in the experiment with HCT116 cells and 316 nM on Human PARP-1 enzyme.
Taken in the same sequence, the figures for `CCc1cc2ccc(C(C)(C#N)CCOc3ccc4ccccc4c3)cc2[nH]c1=O` (stereo not shown) [Compound 157] were 1580 nM and 1580 nM.
For `CCc1cc2ccc(C(C)(C#N)CCOc3cccc4ccccc34)cc2[nH]c1=O` (stereo not shown) [Compound 158], the IC50 in the experiment with HCT116 cells is 1260 nM; on Human PARP-1 enzyme, 1580 nM.
On to `CCc1cc2ccc(C(C)(C#N)CCOc3ccccc3C(C)=O)cc2[nH]c1=O` (stereo not shown) [Compound 159], for which the IC50 with HCT116 cells is greater than 10000 nM; at Human PARP-1 enzyme it was 251 nM.
Taken in the same sequence, the figures for `CCc1cc2ccc(C(C)(C#N)CCOc3ccc(Br)cc3)cc2[nH]c1=O` (stereo not shown) [Compound 160] were 2000 nM and 794 nM.
Regarding `CCc1cc2ccc(C(C)(C#N)CCOc3ccc(C#N)cc3)cc2[nH]c1=O` (stereo not shown) [Compound 161], the IC50 in the experiment on HCT116 cells was 501 nM; at Human PARP-1 enzyme it was 251 nM.
For `CCc1cc2ccc(C(C)(C#N)CCOc3ccc4oc(C)c(C)c4c3)cc2[nH]c1=O` (stereo not shown) [Compound 162] the same measures were greater than 10000 nM and 1000 nM.
As for `CCc1cc2ccc(C(C)(C#N)CCOc3cccc4c3OCCO4)cc2[nH]c1=O` (stereo not shown) [Compound 163], the IC50 was 398 nM in the experiment with HCT116 cells and 1260 nM at Human PARP-1 enzyme.
For `CCc1cc2ccc(C(C)(C#N)Cc3cccc(CCC#N)c3)cc2[nH]c1=O` (stereo not shown) [Compound 165] the same measures were 631 nM and 251 nM.
`CCc1cc2ccc(C(C#N)(CCOc3ccccc3)C3CC3)cc2[nH]c1=O` (stereo not shown) [Compound 166]: the IC50 in the experiment with HCT116 cells is 10000 nM; on Human PARP-1 enzyme, 501 nM.
For `CCc1cc2ccc(C(C)(C#N)CCOc3ccc(C(C)(C)C)cc3)cc2[nH]c1=O` (stereo not shown) [Compound 167] the same measures were greater than 10000 nM and 1580 nM.
Taken in the same sequence, the figures for `CCc1cc2ccc(C(C)(C#N)CC#Cc3cccc(F)c3)cc2[nH]c1=O` (stereo not shown) [Compound 184] were 3160 nM and 100 nM.
Taken in the same sequence, the figures for `Cc1cc2ccc([C@@](C)(C#N)[C@@H]3CCc4cc(C#N)ccc43)cc2[nH]c1=O` [Compound 245] were 6310 nM and 200 nM.
Take `CCc1cc2ccc([C@](C)(C#N)C[C@@H]3CCc4cc(C)ccc4O3)cc2[nH]c1=O` [Compound 251]: the values for the IC50 with HCT116 cells and at Human PARP-1 enzyme were 631 nM and 200 nM, respectively.
For `CCc1cc2ccc([C@@](C)(C#N)C[C@@H]3CCc4cc(C)ccc4O3)cc2[nH]c1=O` [Compound 252] the same measures were 126 nM and 200 nM.
For `CCc1cc2ccc(C(C#N)(CC)CCOc3ccc(C#N)cc3)cc2[nH]c1=O` (stereo not shown) [Compound 271] the same measures were 1580 nM and 100 nM.
Taken in the same sequence, the figures for `Cc1cc2ccc([C@@](C)(C#N)[C@H]3CCc4cc(C#N)ccc43)cc2[nH]c1=O` [Compound 389] were 200 nM and 200 nM.
Turning to `CCc1cc2ccc(C(C#N)(CC)C3CCc4ccc(F)cc43)cc2[nH]c1=O` (stereo not shown) [Compound 391], the IC50 is 631 nM in the experiment with HCT116 cells and 200 nM at Human PARP-1 enzyme.
